Laboratory results from patent publication US20050038110A1, “Selective androgen receptor modulators and methods of use thereof” (priority 2000, published 2005).

Columns and labels:
[1] = system: androgen-responsive tissues (prostate, seminal vesicles and levator ani muscle) of castrated rats; experiment: Androgenic and anabolic activity in castrated rat model, 14 days of administration; conditions: for prostate and seminal vesicle weights / Levator Ani organ weight / Prostate organ weight / Seminal Vesicles organ weight: 14 days; for prostate and seminal vesicle weights: % of that observed in intact animals (FIG. 1); for prostate, seminal vesicle and levator ani muscle weights: 14 days (FIG. 3); for Levator Ani organ weight / Prostate organ weight / Seminal Vesicles organ weight: mean ± S.D.
[2] = Pharmacokinetic studies (in vivo clearance); conditions: comparison among N-1 to N-4
[3] = compared with testosterone propionate (FIG. 3)

C[C@](O)(COc1ccc(F)cc1)C(=O)Nc1ccc([N+](=O)[O-])c(C(F)(F)F)c1 [Compound 1]
prostate and seminal vesicle weights ([1]; 0.1-1.0 mg/day): less than 20%

C[C@](O)(COc1ccc(C#N)cc1)C(=O)Nc1ccc(C#N)c(C(F)(F)F)c1 [Compound N-4]
in vivo clearance [2]: lowest in vivo clearance
weight of the levator ani muscle ([1]; 1 mg/day for 14 days): 142%±17%
in vivo pharmacologic activity ([1]; 1 mg/day for 14 days, comparison among N-1 to N-4): greatest activity

C[C@](O)(COc1ccc(Cl)cc1)C(=O)Nc1ccc(C#N)c(C(F)(F)F)c1 [Compound 6]
prostate, seminal vesicle and levator ani muscle weights ([1]; 0.1-1.0 mg/day): dose-dependent increases
potency and intrinsic activity in increasing the weight of levator ani muscle [1, 3]: greater potency and intrinsic activity
potency and intrinsic activity in increasing the weights of prostate and seminal vesicle [1, 3]: lower potency and intrinsic activity
levator ani muscle weight ([1]; dose as low as 0.3 mg/day, versus intact animals (FIG. 3)): same level as that of intact animals

C[C@](O)(COc1ccc([N+](=O)[O-])cc1)C(=O)Nc1ccc(C#N)c(C(F)(F)F)c1 [Compound N-3]
weight of the levator ani muscle ([1]; 1 mg/day for 14 days): 130%±5%

C[C@](O)(COc1ccc(Br)cc1)C(=O)Nc1ccc([N+](=O)[O-])c(C(F)(F)F)c1 [Compound 3]
prostate and seminal vesicle weights ([1]; 0.1-1.0 mg/day): less than 20%

C[C@](O)(COc1ccc(C#N)cc1)C(=O)Nc1ccc([N+](=O)[O-])c(C(F)(F)F)c1 [Compound N-2]
weight of the levator ani muscle ([1]; 1 mg/day for 14 days): 119%±16%

C[C@](O)(COc1ccc(Cl)cc1)C(=O)Nc1ccc([N+](=O)[O-])c(C(F)(F)F)c1 [Compound 2]
levator ani muscle weight ([1]; 0.1-1.0 mg/day, 14 days (FIG. 1), versus intact animals): same level as that of intact animals
prostate and seminal vesicle weights ([1]; 0.1-1.0 mg/day): less than 40%

CCC(=O)O[C@H]1CC[C@H]2[C@@H]3CCC4=CC(=O)CC[C@]4(C)[C@H]3CC[C@]12C [testosterone propionate, reference compound]
prostate, seminal vesicle and levator ani muscle weights ([1]; 0.1-1.0 mg/day): dose-dependent manner

C[C@](O)(COc1ccc(I)cc1)C(=O)Nc1ccc([N+](=O)[O-])c(C(F)(F)F)c1 [Compound 4]
prostate and seminal vesicle weights ([1]; 0.1-1.0 mg/day): less than 20%

C[C@](O)(COc1ccc([N+](=O)[O-])cc1)C(=O)Nc1ccc([N+](=O)[O-])c(C(F)(F)F)c1 [Compound N-1]
weight of the levator ani muscle ([1]; 1 mg/day for 14 days): 105%±13%

C[C@](O)(COc1ccc(F)cc1)C(=O)Nc1ccc(C#N)c(C(F)(F)F)c1 [Compound 5]
Levator Ani organ weight ([1]; 0.10 mg/day): 54.9 ± 5.77 % of intact
Prostate organ weight ([1]; 0.10 mg/day): 6.4 ± 0.82 % of intact
Seminal Vesicles organ weight ([1]; 0.10 mg/day): 8.8 ± 1.18 % of intact
Levator Ani organ weight ([1]; 0.50 mg/day): 55.0 ± 9.23 % of intact
Prostate organ weight ([1]; 0.50 mg/day): 6.2 ± 0.56 % of intact
Seminal Vesicles organ weight ([1]; 0.50 mg/day): 9.3 ± 1.57 % of intact
Levator Ani organ weight ([1]; 0.75 mg/day): 68.9 ± 8.46 % of intact
Prostate organ weight ([1]; 0.75 mg/day): 7.6 ± 0.74 % of intact
Seminal Vesicles organ weight ([1]; 0.75 mg/day): 9.8 ± 3.65 % of intact
Levator Ani organ weight ([1]; 1.00 mg/day): 75.2±9.51 % of intact
Prostate organ weight ([1]; 1.00 mg/day): 8.7±1.39 % of intact
Seminal Vesicles organ weight ([1]; 1.00 mg/day): 10.7±0.91 % of intact
